From patent US20050272814A1, “Medicine for prevention or treatment of diabetes” (priority 2004, published 2005) come the findings set out here.

The subject of this assay is C57BL/KsJdb/db mice. Put plainly: Hypoglycemic effect of single or combined administration in db/db mice (plasma glucose on day 14). The settings on record: for Decreasing rate: plasma glucose decrease vs control group mean. It is filed as in vivo, mouse. The procedure:
As test animals, C57BL/KsJdb/db mice were used, which were created in Jackson Laboratory (USA) and known as an obesity, hyperlipemia, hyperinsulinemia, and insulin-resistant model (Journal of Clinical Investigation, 85, pp 962-967, 1990). Blood was collected from the orbital venous plexus of each 7-week-old db/db mouse using a heparin-treated capillary tube, and centrifugation was performed to collect plasma. Thereafter, the plasma glucose concentration (Glucose CII-Test Wako (Wako Pure Chemical Industries, Ltd.)), the insulin concentration (Lebis Insulin Kit: for mouse-T (SHIBAYAGI)), and the triglyceride concentration (Triglyceride E-Test Wako (Wako Pure Chemical Industries, Ltd.)) were measured for classification. The classification was performed so that distribution of each measurement item is uniform for each group by block allocation based on many variables in which the plasma glucose concentration is most emphasized using the measured values of the plasma glucose concentration, the body weight, the insulin concentration, and the triglyceride concentration. […] Two hours after the administration of the medicines on the 14th day from the beginning day of the administration, blood was collected from the orbital venous plexus, and the plasma thereof was collected to measure the plasma glucose concentration. […] Each plasma glucose concentration is expressed as mean±standard deviation for 6 mice of each group. Each decreasing rate is calculated from ((mean of plasma glucose concentration of control group)−(mean of plasma glucose concentration of each group))/(mean of plasma glucose concentration of control group)×100, while each relative index is calculated from (mean of plasma glucose concentration of each group)/(mean of plasma glucose concentration of control group).

Molecules are shown by their SMILES.

Take `CN(C)C(=N)NC(=N)N.Cl` [Metformin, 1,1-Dimethylbiguanide hydrochloride, reference compound]: the Decreasing rate (300 mg/kg oral once a day for 14 days) is recorded as 3%.

On to `O=C([O-])C(Cl)(Cl)CCCCCCCCCCc1ccc(Cl)cc1.[Na+]` [sodium 2,2-dichloro-12-(4-chlorophenyl)-dodecanoate], for which the Relative index (3 mg/kg oral once a day for 14 days, mean plasma glucose of group / control group) came to 0.89. Further, for the setting “3 mg/kg oral once a day for 14 days, plasma 2 h after dosing on day 14, mean ± SD, 6 mice”, the Plasma glucose concentration amounted to 241 ± 116 mg/dL. The Decreasing rate (3 mg/kg oral once a day for 14 days) was determined as 11%. Under “single administration 3 mg/kg, 14 days, compared with normal db/+m mouse level (187±16)”, the “Decreasing effect for the plasma glucose concentration (in words)” value was “insufficient”.
